{"source": "patent US20100285963A1", "about": "“SUBSTITUTED FLUOROALKOXYPHENYLSULFONYLUREAS” (priority 2001, published 2010)", "format_in_all_cases": "in vivo", "key": {"weeds [1]": {"system": "weeds", "assay": "Post-emergence test (greenhouse), damage to weeds", "conditions": "for activity against weeds: test plants of 5-15 cm sprayed, rated after three weeks as % damage vs untreated control", "description": "(§1) Solvent: 5 parts by weight of acetone\n(§2) Emulsifier: 1 part by weight of alkylaryl polyglycol ether\n(§3) To product a suitable preparation of active compound, 1 part by weight of active compound is mixed with the stated amount of solvent, the stated amount of emulsifier is added and the concentrate is diluted with water to the desired concentration.\n(§4) Test plants of a height of 5-15 cm are sprayed with the preparation of active compound such that the particular amounts of active compound desired are applied per unit area. The concentration of the spray liquor is chosen such that the particular amounts of active compound desired are applied in 10001 of water/ha.\n(§5) After three weeks, the degree of damage to the plants is rated in % damage in comparison to the development of the untreated control.\n(§6) The figures denote: • 0%=no effect (like untreated control) • 100%=total destruction"}, "weeds [2]": {"system": "weeds", "assay": "Pre-emergence test (greenhouse), damage to weeds", "conditions": "for activity against weeds: soil sprayed 24 hours after sowing, rated after three weeks as % damage vs untreated control", "description": "as §1, §2\n(§7) To produce a suitable preparation of active compound, 1 part by weight of active compound is mixed with the stated amount of solvent, the stated amount of emulsifier is added and the concentrate is diluted with water to the desired concentration.\n(§8) Seeds of the test plants are sown in normal soil. After 24 hours, the soil is sprayed with the preparation of active compounds such that the particular amount of active compound desired is applied per unit area. The concentration of active compound in the spray liquor is chosen such that the particular amount of active compound desired is applied in 1000 liters of water per hectare.\n(§9) After three weeks, the degree of damage to the plants is rated in % damage in comparison to the development of the untreated control. The figures denote: • 0%=no effect (like untreated control) • 100%=total destruction"}, "[3]": {"system": "apple mildew pathogen Podosphaera leucotricha", "assay": "Podosphaera test (apple)/protective", "conditions": "protective; for efficacy against mildew of apples (Podosphaera leucotricha): application rate of 100 g/ha, evaluation 10 days after the inoculation; for % efficacy: apple, application rate 100 g/ha, 10 days after inoculation", "description": "Solvent: 49 parts by weight of acetone\nas §2\nTo produce a suitable preparation of active compound, 1 part by weight of active compound is mixed with the stated amounts of solvent and emulsifier, and the concentrate is diluted with water to the desired concentration.\nTo test for protective activity, young plants are sprayed with the preparation of active compound at the stated application rate. After the spray coating has dried on, the plants are inoculated with an aqueous spore suspension of the apple mildew pathogen Podosphaera leucotricha. The plants are then placed in a greenhouse at about 23° C. and a relative atmospheric humidity of about 70%.\nEvaluation is carried out 10 days after the inoculation. 0% means an efficacy which corresponds to that of the control, whereas an efficacy of 100% means that no infection is observed."}, "[4]": {"system": "crop plants, such as, for example, corn, wheat and sugar beet", "assay": "Post-emergence test (greenhouse), tolerance by crop plants", "conditions": "after three weeks", "description": "as §1, §2, §3, §4, §5, §6"}, "[5]": {"system": "crop plants, such as, for example, wheat and soya", "assay": "Pre-emergence test (greenhouse), tolerance by crop plants", "conditions": "after three weeks", "description": "as §1, §2, §7, §8, §9"}, "[6]": {"conditions": "30 g of a.i./ha, after three weeks, Table B2"}, "[7]": {"conditions": "30 g of a.i./ha, after three weeks"}, "[8]": {"conditions": "125 g of a.i./ha, after three weeks"}, "[9]": {"conditions": "250 g of a.i./ha, after three weeks"}, "[10]": {"conditions": "30 g of a.i./ha, after three weeks, Table B5"}, "[11]": {"conditions": "60 g of a.i./ha, after three weeks, Table A6"}, "[12]": {"conditions": "15 g of a.i./ha, after three weeks"}, "[13]": {"conditions": "30 g of a.i./ha, after three weeks, Table B7"}, "[14]": {"conditions": "15 g of a.i./ha, after three weeks, Table A2"}}, "data": [{"smiles": "CCCc1cccc(OCCCF)c1S(=O)(=O)NC(=O)Nc1nc(OC)cc(OC)n1", "note": "[Example 25]", "values": [{"measurement": "activity against weeds", "setting": "weeds [1]", "result": "very strong activity"}, {"measurement": "activity against weeds", "setting": "weeds [2]", "result": "very strong activity"}, {"measurement": "efficacy against mildew of apples (Podosphaera leucotricha)", "setting": "[3]", "result": 100, "unit": "%"}]}, {"smiles": "CCCc1cccc(OCCCF)c1S(=O)(=O)NC(=O)Nc1nc(C)nc(OC)n1", "note": "[(7)]", "values": [{"measurement": "% damage Abutilon", "setting": "weeds [1]; [6]", "result": 100, "unit": "%"}, {"measurement": "% damage Alopecurus", "setting": "weeds [1]; [6]", "result": 90, "unit": "%"}, {"measurement": "% damage Amaranthus", "setting": "weeds [1]; [6]", "result": 100, "unit": "%"}, {"measurement": "% damage Datura", "setting": "weeds [1]; [6]", "result": 100, "unit": "%"}, {"measurement": "% damage Solanum", "setting": "weeds [1]; [6]", "result": 100, "unit": "%"}, {"measurement": "% damage Wheat", "setting": "[4]; 30 g of a.i./ha, Table B2", "result": 0, "unit": "%"}, {"measurement": "% damage Chenopodium", "setting": "weeds [2]; [7]", "result": 90, "unit": "%"}, {"measurement": "% damage Echinochloa", "setting": "weeds [2]; [7]", "result": 90, "unit": "%"}, {"measurement": "% damage Galium", "setting": "weeds [2]; [7]", "result": 90, "unit": "%"}, {"measurement": "% damage Stellaria", "setting": "weeds [2]; [7]", "result": 100, "unit": "%"}, {"measurement": "% damage Viola", "setting": "weeds [2]; [7]", "result": 100, "unit": "%"}, {"measurement": "% damage Wheat", "setting": "[5]; 30 g of a.i./ha", "result": 0, "unit": "%"}]}, {"smiles": "CCCc1cccc(OCCCF)c1S(=O)(=O)NC(=O)Nc1nc(OC)cc(OC)n1", "note": "[(25)]", "values": [{"measurement": "% damage Abutilon", "setting": "weeds [1]; [8]", "result": 95, "unit": "%"}, {"measurement": "% damage Alopecurus", "setting": "weeds [1]; [8]", "result": 90, "unit": "%"}, {"measurement": "% damage Amaranthus", "setting": "weeds [1]; [8]", "result": 100, "unit": "%"}, {"measurement": "% damage Datura", "setting": "weeds [1]; [8]", "result": 100, "unit": "%"}, {"measurement": "% damage Solanum", "setting": "weeds [1]; [8]", "result": 100, "unit": "%"}, {"measurement": "% damage Abutilon", "setting": "weeds [1]; [9]", "result": 100, "unit": "%"}, {"measurement": "% damage Alopecurus", "setting": "weeds [1]; [9]", "result": 90, "unit": "%"}, {"measurement": "% damage Amaranthus", "setting": "weeds [1]; [9]", "result": 100, "unit": "%"}, {"measurement": "% damage Avena fatua", "setting": "weeds [1]; [9]", "result": 90, "unit": "%"}, {"measurement": "% damage Galium", "setting": "weeds [1]; [9]", "result": 100, "unit": "%"}, {"measurement": "% damage Setaria", "setting": "weeds [1]; [9]", "result": 100, "unit": "%"}, {"measurement": "% damage Sinapis", "setting": "weeds [1]; [9]", "result": 100, "unit": "%"}, {"measurement": "% damage Wheat", "setting": "[4]; 125 g of a.i./ha", "result": 10, "unit": "%"}, {"measurement": "% damage Chenopodium", "setting": "weeds [2]; [8]", "result": 90, "unit": "%"}, {"measurement": "% damage Datura", "setting": "weeds [2]; [8]", "result": 90, "unit": "%"}, {"measurement": "% damage Echinochloa", "setting": "weeds [2]; [8]", "result": 90, "unit": "%"}, {"measurement": "% damage Stellaria", "setting": "weeds [2]; [8]", "result": 90, "unit": "%"}, {"measurement": "% damage Viola", "setting": "weeds [2]; [8]", "result": 100, "unit": "%"}, {"measurement": "% damage Alopecurus", "setting": "weeds [2]; [9]", "result": 95, "unit": "%"}, {"measurement": "% damage Amaranthus", "setting": "weeds [2]; [9]", "result": 100, "unit": "%"}, {"measurement": "% damage Avena fatua", "setting": "weeds [2]; [9]", "result": 90, "unit": "%"}, {"measurement": "% damage Galium", "setting": "weeds [2]; [9]", "result": 95, "unit": "%"}, {"measurement": "% damage Setaria", "setting": "weeds [2]; [9]", "result": 100, "unit": "%"}, {"measurement": "% damage Xanthium", "setting": "weeds [2]; [9]", "result": 100, "unit": "%"}, {"measurement": "% damage Wheat", "setting": "[5]; 125 g of a.i./ha", "result": 0, "unit": "%"}]}, {"smiles": "COc1cc(OC)nc(NC(=O)NS(=O)(=O)c2c(C)cccc2OCCF)n1", "note": "[Example 24]", "values": [{"measurement": "activity against weeds", "setting": "weeds [1]", "result": "very strong activity"}, {"measurement": "activity against weeds", "setting": "weeds [2]", "result": "very strong activity"}, {"measurement": "efficacy against mildew of apples (Podosphaera leucotricha)", "setting": "[3]", "result": 100, "unit": "%"}]}, {"smiles": "CCCc1cccc(OCCF)c1S(=O)(=O)NC(=O)Nc1nc(OC)cc(OC)n1", "note": "[drawing 20]", "values": [{"measurement": "% efficacy", "setting": "[3]", "result": 100, "unit": "%"}]}, {"smiles": "COc1cc(Cl)nc(NC(=O)NS(=O)(=O)c2c(C)cccc2OCCCF)n1", "note": "[(14)]", "values": [{"measurement": "% damage Amaranthus", "setting": "weeds [1]; [10]", "result": 100, "unit": "%"}, {"measurement": "% damage Ipomoea", "setting": "weeds [1]; [10]", "result": 95, "unit": "%"}, {"measurement": "% damage Matricaria", "setting": "weeds [1]; [10]", "result": 90, "unit": "%"}, {"measurement": "% damage Sugar beet", "setting": "[4]; 30 g of a.i./ha, Table B5", "result": 0, "unit": "%"}, {"measurement": "% damage Wheat", "setting": "[4]; 30 g of a.i./ha, Table B5", "result": 0, "unit": "%"}, {"measurement": "% damage Abutilon", "setting": "weeds [2]; [11]", "result": 95, "unit": "%"}, {"measurement": "% damage Alopecurus", "setting": "weeds [2]; [11]", "result": 100, "unit": "%"}, {"measurement": "% damage Amaranthus", "setting": "weeds [2]; [11]", "result": 95, "unit": "%"}, {"measurement": "% damage Echinochloa", "setting": "weeds [2]; [11]", "result": 100, "unit": "%"}, {"measurement": "% damage Galium", "setting": "weeds [2]; [11]", "result": 90, "unit": "%"}, {"measurement": "% damage Sinapis", "setting": "weeds [2]; [11]", "result": 95, "unit": "%"}]}, {"smiles": "CCc1cccc(OCCCF)c1S(=O)(=O)NC(=O)Nc1nc(Cl)cc(OC)n1", "note": "[(18)]", "values": [{"measurement": "% damage Abutilon", "setting": "weeds [1]; [12]", "result": 90, "unit": "%"}, {"measurement": "% damage Amaranthus", "setting": "weeds [1]; [12]", "result": 95, "unit": "%"}, {"measurement": "% damage Matricaria", "setting": "weeds [1]; [12]", "result": 95, "unit": "%"}, {"measurement": "% damage Xanthium", "setting": "weeds [1]; [12]", "result": 90, "unit": "%"}, {"measurement": "% damage Wheat", "setting": "[4]; 15 g of a.i./ha", "result": 15, "unit": "%"}]}, {"smiles": "COc1cc(OC)nc(NC(=O)NS(=O)(=O)c2c(OCCF)cccc2C(F)(F)F)n1", "note": "[(4)]", "values": [{"measurement": "% damage Abutilon", "setting": "weeds [1]; [13]", "result": 95, "unit": "%"}, {"measurement": "% damage Alopecurus", "setting": "weeds [1]; [13]", "result": 90, "unit": "%"}, {"measurement": "% damage Amaranthus", "setting": "weeds [1]; [13]", "result": 100, "unit": "%"}, {"measurement": "% damage Ipomoea", "setting": "weeds [1]; [13]", "result": 95, "unit": "%"}, {"measurement": "% damage Matricaria", "setting": "weeds [1]; [13]", "result": 100, "unit": "%"}, {"measurement": "% damage Viola", "setting": "weeds [1]; [13]", "result": 95, "unit": "%"}, {"measurement": "% damage Alopecurus", "setting": "weeds [2]; [14]", "result": 80, "unit": "%"}, {"measurement": "% damage Chenopodium", "setting": "weeds [2]; [14]", "result": 100, "unit": "%"}, {"measurement": "% damage Matricaria", "setting": "weeds [2]; [14]", "result": 100, "unit": "%"}, {"measurement": "% damage Sorghum", "setting": "weeds [2]; [14]", "result": 80, "unit": "%"}, {"measurement": "% damage Viola", "setting": "weeds [2]; [14]", "result": 100, "unit": "%"}, {"measurement": "% damage Soya", "setting": "[5]; 15 g of a.i./ha", "result": 0, "unit": "%"}, {"measurement": "% damage Wheat", "setting": "[5]; 15 g of a.i./ha", "result": 0, "unit": "%"}]}, {"smiles": "COc1cc(OC)nc(NC(=O)NS(=O)(=O)c2c(C)cccc2OCCF)n1", "note": "[drawing 17]", "values": [{"measurement": "% efficacy", "setting": "[3]", "result": 100, "unit": "%"}]}, {"smiles": "CCCc1cccc(OCCCF)c1S(=O)(=O)NC(=O)Nc1nc(OC)cc(OC)n1", "note": "[drawing 19]", "values": [{"measurement": "% efficacy", "setting": "[3]", "result": 100, "unit": "%"}]}]}
